Source: patent EP4778920A1, “INDAZOLONE COMPOUND, PREPARATION METHOD THEREFOR, PHARMACEUTICAL COMPOSITION, AND USE” (Shanghai Institute of Materia Medica, Chinese Academy of …, priority 2023, dated 2025)
Where two headings read alike, the source gives them in different places.

What was measured:
CRBN/DDB1 = CRBN/DDB1 (Homo sapiens, UniProt Q96SW2); assay: CRBN/DDB1 binding TR-FRET assay; conditions: read-out: AVE_Inhibition% (1 µM)
Experimental: • 1. 0.1 µL of the reference solution was added to a 384-well assay plate. The final detection concentration was 100 µM, followed by 3-fold serial dilution for 10 points. • 2. 2.5 µL of CRBN/DDB1 was added to the 384-well plate and centrifuged at 1000 rpm for 1 minute. • 3. 2.5 µL of Thalidomide-BODIPY was added to the plate, centrifuged at 1000 rpm for 1 minute, and incubated at 25 °C for 15 minutes. • 4. 5 µL of His-Tb was added to the plate, centrifuged at 1000 rpm for 1 minute, and incubated at 25 °C for 60 minutes. • 5. The TR-FRET signal was measured using a BMG plate reader with a fluorescence ratio of 520/490 nm.
Table 4. Inhibition Rate of Compounds on CRBN/DDB1 Binding

MM.1S cells = assay: MM.1S cell proliferation inhibition (MTS assay); format: cell-based; conditions: Homo sapiens, MM1.S, 168 h, 7 days incubation, read-out: MM1.S (IC50, Inhibitory Activity of Compounds on MM.1S Cell Proliferation)
Experimental: The cell concentration was diluted according to a 7-day incubation period, and 180 µL of cell suspension was added to each well of a 96-well plate, with 20,000 cells per well. […] The test compounds were prepared from a 10 mM stock solution and serially diluted in a 5-fold gradient, and 20 µL of the diluted solution was added to each compound-treated well (final DMSO concentration also 0.2%). The cells were incubated in a 37 °C, 5% CO2 incubator for 7 days. After incubation, the reaction solution was prepared according to the MTS assay kit instructions (Promega, G5430), and 20 µL was added to each well. The plate was incubated at 37 °C with 5% CO2 for 3-4 hours. The absorbance at 490 nm was measured using a microplate reader, and the absorbance at 690 nm was used as the background value. […] The IC50 values for cell proliferation inhibition were determined using GraphPad Prism 5.0. Each experiment was repeated three times, and three parallel replicates were performed in each experiment to calculate the mean value and standard deviation.
Inhibitory Activity of Compounds on MM.1S Cell Proliferation

Mino cells = assay: Mino cell proliferation inhibition (MTS assay); format: cell-based; conditions: Homo sapiens, 72 h, 3 days incubation, read-out: Mino (IC50, Inhibitory Activity of Compounds on Mino Cell Proliferation)
Experimental: The cell concentration was diluted according to a 3-day incubation period, and 90 µL of cell suspension was added to each well of a 96-well plate, resulting in 8,000 cells per well. […] The test compounds were prepared from a 10 mM stock solution and serially diluted in a five-fold gradient. Similarly, 10 µL of the diluted compound solution was added to each compound-treated well (final DMSO concentration 0.2%).
The cells were incubated in a 37 °C, 5% CO2 incubator for 3 days. After incubation, the reaction solution was prepared according to the MTS assay kit instructions (Promega, G5430), and 20 µL was added to each well. The plate was further incubated at 37 °C with 5% CO2 for 3-4 hours. The absorbance at 490 nm was measured using a microplate reader, and the absorbance at 690 nm was used as the background value. The final raw data were calculated as OD490 - OD690. […] The IC50 values for cell proliferation inhibition were determined using GraphPad Prism 5.0. Each experiment was repeated three times, and three parallel replicates were performed in each experiment to calculate the mean value and standard deviation.
Table 2. Inhibitory Activity of Compounds on Mino Cell Proliferation

MV-4-11 cells = assay: MV-4-11 cell proliferation inhibition (MTS assay); format: cell-based; conditions: Homo sapiens, MV4-11, 168 h, 7 days incubation, MTS, read-out: MV-411 (IC50, Inhibitory Activity of Compounds on MV-4-11 Cell Proliferation)
Experimental: MV-4-11 cells were cultured in IMDM medium supplemented with 10% fetal bovine serum and collected. The cell concentration was diluted according to a 7-day incubation period, and 180 µL of cell suspension was added to each well of a 96-well plate, resulting in 2,000 cells per well. […] The test compounds were prepared from a 10 mM stock solution and serially diluted in a five-fold gradient, and 20 µL of the diluted compound solution was added to each compound-treated well (final DMSO concentration 0.2%). The cells were incubated in a 37 °C, 5% CO2 incubator for 7 days. After incubation, the reaction solution was prepared according to the MTS assay kit instructions (Promega, G5430), and 20 µL was added to each well. The plate was further incubated at 37 °C with 5% CO2 for 3-4 hours. The absorbance at 490 nm was measured using a microplate reader, and the absorbance at 690 nm was used as the background value. The final raw data were calculated as OD490 - OD690. […] The IC50 values for cell proliferation inhibition were determined using GraphPad Prism 5.0. Each experiment was repeated three times, and three parallel replicates were performed in each experiment to calculate the mean value and standard deviation.
Table 3. Inhibitory Activity of Compounds on MV-4-11 Cell Proliferation

[1] = cited from earlier work

Chain of CRBN/DDB1 (Q96SW2 whole entry, species assumed): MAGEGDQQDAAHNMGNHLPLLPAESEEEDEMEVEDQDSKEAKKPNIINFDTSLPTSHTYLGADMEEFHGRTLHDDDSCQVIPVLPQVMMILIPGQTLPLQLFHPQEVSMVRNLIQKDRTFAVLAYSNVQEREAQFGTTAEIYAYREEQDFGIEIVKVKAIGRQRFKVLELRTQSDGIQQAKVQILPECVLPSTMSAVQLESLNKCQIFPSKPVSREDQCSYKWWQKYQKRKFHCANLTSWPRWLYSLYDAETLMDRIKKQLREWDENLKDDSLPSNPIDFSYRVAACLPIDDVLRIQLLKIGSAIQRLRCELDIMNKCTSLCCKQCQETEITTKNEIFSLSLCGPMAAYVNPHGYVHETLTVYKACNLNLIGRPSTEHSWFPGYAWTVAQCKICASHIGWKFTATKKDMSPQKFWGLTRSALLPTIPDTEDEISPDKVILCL
Chain of CRBN/DDB1 (Q16531 whole entry partner, species assumed): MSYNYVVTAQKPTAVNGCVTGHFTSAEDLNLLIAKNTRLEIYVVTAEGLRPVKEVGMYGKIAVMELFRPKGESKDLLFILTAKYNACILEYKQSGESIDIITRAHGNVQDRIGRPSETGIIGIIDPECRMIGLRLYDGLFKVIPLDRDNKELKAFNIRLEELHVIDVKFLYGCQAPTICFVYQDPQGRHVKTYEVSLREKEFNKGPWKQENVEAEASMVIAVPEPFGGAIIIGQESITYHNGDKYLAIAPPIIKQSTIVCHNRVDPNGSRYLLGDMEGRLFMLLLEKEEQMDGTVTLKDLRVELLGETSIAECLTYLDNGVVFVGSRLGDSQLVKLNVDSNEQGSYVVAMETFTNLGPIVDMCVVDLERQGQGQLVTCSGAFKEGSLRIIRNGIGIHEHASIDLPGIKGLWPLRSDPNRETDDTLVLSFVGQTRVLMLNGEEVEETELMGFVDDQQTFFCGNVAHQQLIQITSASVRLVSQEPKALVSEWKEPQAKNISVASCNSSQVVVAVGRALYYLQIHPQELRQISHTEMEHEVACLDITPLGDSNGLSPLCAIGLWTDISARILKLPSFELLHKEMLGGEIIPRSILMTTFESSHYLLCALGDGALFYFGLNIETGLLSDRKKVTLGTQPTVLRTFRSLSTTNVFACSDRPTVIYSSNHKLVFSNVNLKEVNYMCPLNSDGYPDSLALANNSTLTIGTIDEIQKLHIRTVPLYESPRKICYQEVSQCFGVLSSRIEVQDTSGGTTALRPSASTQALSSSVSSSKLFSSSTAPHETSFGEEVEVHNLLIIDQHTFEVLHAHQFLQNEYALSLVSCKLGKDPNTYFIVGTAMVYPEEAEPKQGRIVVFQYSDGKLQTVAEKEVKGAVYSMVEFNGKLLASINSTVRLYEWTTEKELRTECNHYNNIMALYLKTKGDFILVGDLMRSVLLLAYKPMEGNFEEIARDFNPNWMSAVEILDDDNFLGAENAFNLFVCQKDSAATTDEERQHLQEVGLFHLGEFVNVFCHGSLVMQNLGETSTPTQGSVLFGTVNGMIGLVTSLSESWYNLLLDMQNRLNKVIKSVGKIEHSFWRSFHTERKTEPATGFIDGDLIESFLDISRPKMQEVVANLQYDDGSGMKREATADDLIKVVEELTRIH

In the case of `CCn1c2c(OCc3ccc(CN4CCOCC4)cc3)cccc2c(=O)n1C1CCC(=O)NC1=O` (stereo not drawn) [Compound D23, 3-(1-Ethyl-7-((4-(morpholinomethyl)benzyl)oxy)-3-oxo-1,3-dihydro-2H-indazol-2-yl)piperidine-2,6-dione], the inhibition at 1 µM (CRBN/DDB1) is reported as < 50%, the IC50 (MM.1S cells) is reported as > 10 µM and the IC50 (Mino cells) is reported as > 10 µM. The IC50 (MV-4-11 cells) was > 20 µM.
For `CCn1c2c(OCc3ccc(CN4CCN(c5ccc(C#N)cc5F)CC4)cc3)cccc2c(=O)n1C1CCC(=O)NC1=O` (stereo not drawn) [Compound D25], the inhibition at 1 µM (CRBN/DDB1) was < 50%, the IC50 (MM.1S cells) was 1 to 10 µM and the IC50 (Mino cells) was > 10 µM. For the same molecule, the IC50 (MV-4-11 cells) was 1 to 20 µM.
With `CC(C)(C)NC(=O)c1ccc2c(=O)n(C3CCC(=O)NC3=O)[nH]c2c1` (stereo not drawn) [Compound D40, N-(tert-butyl)-2-(2,6-dioxopiperidin-3-yl)-3-oxo-2,3-dihydro-1H-indazole-6-carboxamide] the inhibition at 1 µM (CRBN/DDB1) was < 50%, the IC50 (MM.1S cells) was > 10 µM and the IC50 (Mino cells) was > 10 µM. For the same molecule, the IC50 (MV-4-11 cells) was > 20 µM.
In the case of `O=C1CC[C@H](n2[nH]c3cc(CNC(=O)C(F)(F)c4ccc(Cl)cc4)ccc3c2=O)C(=O)N1` [Compound D44, (S)-2-(4-chlorophenyl)-N-((2-(2,6-dioxopiperidin-3-yl)-3-oxo-2,3-dihydro-1H-indazol-6-yl)methyl)-2,2-difluoroacetamide], the inhibition at 1 µM (CRBN/DDB1) is reported as < 50%, the IC50 (MM.1S cells) is reported as > 10 µM and the IC50 (Mino cells) is reported as > 10 µM. For the same molecule, the IC50 (MV-4-11 cells) was 1 to 20 µM.
In the case of `O=C1CCC(n2[nH]c3cc(C(=O)NCc4ccccc4)ccc3c2=O)C(=O)N1` (stereo not drawn) [Compound D46, N-Benzyl-2-(2,6-dioxopiperidin-3-yl)-3-oxo-2,3-dihydro-1H-indazol-6-carboxamide], the inhibition at 1 µM (CRBN/DDB1) is reported as < 50%, the IC50 (MM.1S cells) is reported as > 10 µM and the IC50 (Mino cells) is reported as > 10 µM. The IC50 (MV-4-11 cells) was > 20 µM.
With `CCc1ccc([C@H](C)NC(=O)c2ccc3c(=O)n(C4CCC(=O)NC4=O)[nH]c3c2)cc1` (stereo partly drawn) [Compound D47, 2-(2,6-Dioxopiperidin-3-yl)-N-((S)-1-(4-ethylphenyl)ethyl)-3-oxo-2,3-dihydro-1H-indazol-6-carboxamide] the inhibition at 1 µM (CRBN/DDB1) was < 50%, the IC50 (MM.1S cells) was 0.2 to 1 µM and the IC50 (Mino cells) was < 0.2 µM. For the same molecule, the IC50 (MV-4-11 cells) was 0.2 to 1 µM.
For `O=C1CCC(N2C(=O)c3ccccc3C2=O)C(=O)N1` (stereo not drawn) [thalidomide], the hydrolysis half-life ([1]; pH 7) is given as “about 11 hours”, the hydrolysis half-life ([1]; pH 7.4) is given as ~5 h and the hydrolysis half-life ([1]; pH 8) is given as ~1.25 h.
